This is an account of results in ChEMBL document CHEMBL4406815, “Natural product derived promising anti-MRSA drug leads: A review” (Bioorg Med Chem, 2019).

Values after ≈ are worked out from the molar mass of the structure shown.

The term MIC denotes the least concentration at which growth counts as inhibited. One may read the IC50 as the concentration that gives 50% inhibition. One may read the MBC as the smallest concentration meeting the test's criterion for killing.

Data set [1] relates to Staphylococcus aureus. Description: Antibacterial activity against methicillin-resistant Staphylococcus aureus. In kind it is functional.
Data set [2] concerns Staphylococcus aureus. As to the kind of experiment: Antibacterial activity against methicillin-resistant Staphylococcus aureus ATCC 43300. The format is functional.
For data set [3], the system named is Staphylococcus aureus. Description: Antibacterial activity against methicillin-resistant Staphylococcus aureus ATCC 33591. In kind it is functional.
Data set [4] has as its system Staphylococcus aureus. As to the kind of experiment: Bactericidal activity against methicillin-resistant Staphylococcus aureus. The format is functional.
The next data set deals with HT-29. Description: Cytotoxicity against human HT-29 cells assessed as reduction in cell viability after 24 hrs by MTS assay. In kind it is functional, cell-based. The conditions noted are these: HT-29, 24 h. On the technique in general: Tetrazolium assays rely on reduction of a dye to a coloured formazan, in cell work by metabolically active cells.
In data set [5] the test system is Staphylococcus aureus. As to the kind of experiment: Antibacterial activity against methicillin resistant Staphylococcus aureus BAA 1762 after 24 to 72 hrs by two-fold serial dilution method. In kind it is functional.
The subject of data set [6] is Staphylococcus aureus. Description: Antibacterial activity against methicillin-sensitive Staphylococcus aureus ATCC 25923 after 24 to 72 hrs by two-fold serial dilution method. In kind it is functional.
The test system of data set [7] is Staphylococcus aureus. As to the kind of experiment: Antibacterial activity against methicillin-resistant Staphylococcus aureus TISTR 1466 by two-fold serial dilution method. The format is functional.
Data set [8] has as its system Staphylococcus aureus. Description: Antibacterial activity against methicillin-resistant Staphylococcus aureus SK1 by two-fold serial dilution method. In kind it is functional.
For the next data set, the system named is Erythrocyte. Description: Hemolytic activity against human erythrocytes. The format is ADME, cell-based.
The nature of data set [9]: Cytotoxicity against African green monkey Vero cells assessed as reduction in cell viability by MTT assay. The conditions noted are these: chlorocebus sabaeus, read-out: MIC. The format is cell-based.
For data set [10], the system named is Staphylococcus aureus. Description: Antimicrobial activity against Staphylococcus aureus ATCC 6538 after 24 hrs by colony counting method. The format is functional. The conditions noted are these: ATCC 6538, 24 h.
The test system of data set [11] is Staphylococcus aureus. Description: Antibacterial activity against methicillin-resistant Staphylococcus aureus ATCC 43300 after 18 hrs. The format is functional, organism-based. The conditions noted are these: ATCC 43300, 18 h.
For data set [12], the system named is Staphylococcus aureus. Description: Antibacterial activity against methicillin-resistant Staphylococcus aureus CGMCC 1.12409. In kind it is functional.
Data set [13] is described as follows: Inhibition of methicillin-resistant Staphylococcus aureus pyruvate kinase.

Regarding `CN[C@H](CC(C)C)C(=O)N[C@H]1C(=O)N[C@@H](CC(N)=O)C(=O)N[C@H]2C(=O)N[C@H]3C(=O)N[C@H](C(=O)N[C@H](C(=O)O)c4cc(O)cc(O)c4-c4cc3ccc4O)[C@H](O)c3ccc(c(Cl)c3)Oc3cc2cc(c3O[C@@H]2O[C@H](CO)[C@@H](O)[C@H](O)[C@H]2O[C@H]2C[C@](C)(N)[C@H](O)[C@H](C)O2)Oc2ccc(cc2Cl)[C@H]1O` [VANCOMYCIN], the lowest concentration to inhibit growth in the data set on Staphylococcus aureus [1] (MIC) was 1.25 µg/mL.

On to `CCCCCCC(C)/C=C(\C)C(=O)O[C@@]1(C)C(=O)C2=COC(C3=C(C)CC(O)CC3=O)=CC2=C(Cl)C1=O` (stereo not given in full), for which the MIC against Staphylococcus aureus [2] and in the data set on Staphylococcus aureus [3] was 3.13 to 6.25 µg/mL (≈ 5.89 to 11.8 µM) in each case.

On to `COc1ccc2cc1Oc1ccc(cc1)C[C@H]1c3cc(c(OC)cc3CCN1C)Oc1c(OC)c(OC)cc3c1[C@H](C2)N(C)CC3` [FANCHININ], for which the MIC against Staphylococcus aureus [4] is 256 to 1020 µg/mL (≈ 411 to 1640 µM); with Staphylococcus aureus [1], 6 to 128 µg/mL.

Regarding `O=c1cc(-c2ccc(O)c(O)c2)oc2cc(O)cc(O)c12` [LUTEOLIN], the IC50 in the data set with HT-29 is 45 µM.

In the case of `COC(=O)/C=C/C(=O)c1ccc(Cl)cc1`, the MIC in the data set on Staphylococcus aureus [5] and against Staphylococcus aureus [6] was 0.35 to 0.75 µg/mL (≈ 1.56 to 3.34 µM) throughout.

Take `COc1ccc2c(c1OC)C(O)N(C)c1c-2ccc2cc3c(cc12)OCO3` (stereo not given): the MBC in the data set with Staphylococcus aureus [4] was 1.95 to 62.5 µg/mL (≈ 5.34 to 171 µM). In the data set with Staphylococcus aureus [1], this compound came in with an MIC of 0.49 to 15.6 µg/mL.

In the case of `C=C(C)/C=C/c1c(C(=O)OC)cc(O)c2[nH]c3ccccc3c12`, in the data set on Staphylococcus aureus [7], the MIC was 4 µg/mL (≈ 13 µM).

Turning to `CCCCCCC(C)/C=C(\C)C(=O)O[C@@]1(C)C(=O)C2=COC(c3c(C)cccc3O)=CC2=C(Cl)C1=O` (stereo not given in full), the MIC in the data set with Staphylococcus aureus [2] and in the data set on Staphylococcus aureus [3] was 3.13 to 6.25 µg/mL (≈ 6.1 to 12.2 µM) in each case.

With `COc1cc(OC)c(C2COc3c(cc(/C=C/C(=O)c4ccco4)c4c3C=CC(C)(C)O4)C2)cc1/C=C/C(=O)c1ccco1` (stereo not given), the MIC with Staphylococcus aureus [1] stood at 12.5 µg/mL.

As to `C=C(C)C1Cc2c(cc(OC)c3[nH]c4ccccc4c23)C(=O)O1` (stereo not given) [CLAUSAMINE B], the MIC was 8 µg/mL (≈ 26 µM) in the data set on Staphylococcus aureus [7] and 0.25 µg/mL (≈ 0.813 µM) against Staphylococcus aureus [8].

For `CCCCCCC(C)/C=C(\C)C(=O)O[C@@]1(C)C(=O)C=C2C=C(c3c(C)cccc3O)OC=C2C1=O` (stereo not given in full), the MIC in the data set on Staphylococcus aureus [2] and with Staphylococcus aureus [3] was 3.13 to 6.25 µg/mL (≈ 6.54 to 13.1 µM) throughout.

Turning to `COc1c(OCCCCN)cc2oc3cc(OCCCCN)c(CC=C(C)C)c(O)c3c(=O)c2c1CC=C(C)C`, the MHC in the data set with Erythrocyte was 80.2 µg/mL. In the data set on Staphylococcus aureus [1], this compound showed a minimum inhibitory concentration (MIC) of 1560 to 3120 µM.

In the case of `CCCC(=O)C1=C(O)C(C)(C)C(O)=C(Cc2c(O)c(C)c(OC)c(C(=O)CCC)c2O)C1=O`, in data set [9], the MCC is 48.1 µg/mL. Moreover, the MIC in the data set on Staphylococcus aureus [10] was in the range of 15 to 62 µg/mL (≈ 32.6 to 135 µM).

On to `COc1c(-c2ccc(O)c(O)c2)oc2cc(O)cc(O)c2c1=O` [3-O-METHYLQUERCETIN], for which the half-maximal inhibitory concentration (IC50) with Staphylococcus aureus [11] came out at 6.4 µM.

As for `COc1ccc2cc1Oc1ccc(cc1)C[C@H]1c3cc(c(OC)cc3CCN1C)Oc1c(O)c(OC)cc3c1[C@H](C2)N(C)CC3` [FANGCHINOLINE], the MIC against Staphylococcus aureus [4] lay in the range of 256 to 1020 µg/mL (≈ 421 to 1680 µM); in the data set on Staphylococcus aureus [1], 6 to 128 µg/mL.

On to `CC1=C[C@H]2c3c(O)c(O)c4oc5cc(O)cc(O)c5c(=O)c4c3[C@H](c3cc(O)c(O)c4oc5cc(O)cc(O)c5c(=O)c34)[C@H]2C(C)(C)C1`, for which the minimal inhibitory concentration (MIC) in the data set with Staphylococcus aureus [2] and against Staphylococcus aureus [12] was 3.9 µg/mL (≈ 5.98 µM) each time.

The compound `O=C1NC[C@@H](c2c[nH]c3cc(Br)ccc23)N[C@H]1c1c[nH]c2cc(Br)ccc12` (relative stereo) [CIS-3,4-DIHYDROHAMACANTHIN B] gave a minimal inhibitory concentration (MIC) in the data set with Staphylococcus aureus [1] of 12.5 µg/mL. In [13], this compound yielded an IC50 of 0.016 to 0.06 µM.

In the data set on Staphylococcus aureus [1], `CCCCOc1c(OC)cc(/C=C2\SC(=O)NC2=O)c2c1CN1CCc3cc4c(cc3C1C2)OCO4` (stereo not given) came in with an MIC of 8 µM.
